Earlier results in patent US20250231185A1, “Coronavirus T Cell Epitopes, Megapools and Uses Thereof” (La Jolla Institute for Immunology, priority 2021, published 2025).

Test system: CD8+ T cells
Settings: CD8R (D) megapool epitopes; dominant = recognized by 3 or more donors/different studies; cited from earlier work
For 1758 (KTIQPRVEK) [compound 1758], the Dominant is given as “Yes (more dominant epitopes are defined by being recognized by 3 or more donors/different studies)”. In the case of 1745 (ALLADKFPV) [compound 1745], the Dominant is listed as “Yes (more dominant epitopes are defined by being recognized by 3 or more donors/different studies)”. For 1779 (VRIQPGQTF) [compound 1779], the Dominant is listed as “Yes (more dominant epitopes are defined by being recognized by 3 or more donors/different studies)”. In the case of 1680 (RYRIGNYKL) [compound 1680], the Dominant is given as “Yes (more dominant epitopes are defined by being recognized by 3 or more donors/different studies)”. In the case of 1803 (IVGVALLAVF) [compound 1803], the Dominant is listed as “Yes (more dominant epitopes are defined by being recognized by 3 or more donors/different studies)”. For 1790 (SEFSSLPSY) [compound 1790], the Dominant is listed as “Yes (more dominant epitopes are defined by being recognized by 3 or more donors/different studies)”. In the case of 1723 (MVMCGGSLYV) [compound 1723], the Dominant is given as “Yes (more dominant epitopes are defined by being recognized by 3 or more donors/different studies)”. In the case of 1815 (IMLIIFWFSL) [compound 1815], the Dominant is given as “Yes (more dominant epitopes are defined by being recognized by 3 or more donors/different studies)”. In the case of 1813 (KLFIRQEEV) [compound 1813], the Dominant is listed as “Yes (more dominant epitopes are defined by being recognized by 3 or more donors/different studies)”. For 1787 (KLKDCVMYA) [compound 1787], the Dominant is given as “Yes (more dominant epitopes are defined by being recognized by 3 or more donors/different studies)”. For 1774 (FSAVGNICY) [compound 1774], the Dominant is given as “Yes (more dominant epitopes are defined by being recognized by 3 or more donors/different studies)”. For 1666 (SLVKPSFYV) [compound 1666], the Dominant is listed as “Yes (more dominant epitopes are defined by being recognized by 3 or more donors/different studies)”. In the case of 1763 (QEILGTVSW) [compound 1763], the Dominant is listed as “Yes (more dominant epitopes are defined by being recognized by 3 or more donors/different studies)”. In the case of 1780 (FLNGSCGSV) [compound 1780], the Dominant is given as “Yes (more dominant epitopes are defined by being recognized by 3 or more donors/different studies)”. In the case of 1675 (SMWSFNPET) [compound 1675], the Dominant is given as “Yes (more dominant epitopes are defined by being recognized by 3 or more donors/different studies)”. In the case of 1669 (KLLEQWNLV) [compound 1669], the Dominant is given as “Yes (more dominant epitopes are defined by being recognized by 3 or more donors/different studies)”.

Same assay, conditions: CD8RE megapool peptides (non-spike SARS-CoV-2 antigens); dominant epitope Yes/No; cited from earlier work
For 2910 (SMWSFNPET) [compound 2910], the Dominant is given as “Yes (more dominant epitopes are defined by being recognized by 3 or more donors/different studies)”. In the case of 3004 (ILFTRFFYV) [compound 3004], the Dominant is given as “Yes (more dominant epitopes are defined by being recognized by 3 or more donors/different studies)”. For 2929 (LALLLLDRL) [compound 2929], the Dominant is listed as “Yes (more dominant epitopes are defined by being recognized by 3 or more donors/different studies)”. For 2926 (ATEGALNTPK) [compound 2926], the Dominant is given as “Yes (more dominant epitopes are defined by being recognized by 3 or more donors/different studies)”. In the case of 2955 (RQLLFVVEV) [compound 2955], the Dominant is listed as “Yes (more dominant epitopes are defined by being recognized by 3 or more donors/different studies)”. For 2945 (FSKQLQQSM) [compound 2945], the Dominant is given as “Yes (more dominant epitopes are defined by being recognized by 3 or more donors/different studies)”. In the case of 2997 (PTDNYITTY) [compound 2997], the Dominant is given as “Yes (more dominant epitopes are defined by being recognized by 3 or more donors/different studies)”. For 3005 (YIFFASFYY) [compound 3005], the Dominant is listed as “Yes (more dominant epitopes are defined by being recognized by 3 or more donors/different studies)”. For 3010 (SLRPDTRYVL) [compound 3010], the Dominant is listed as “Yes (more dominant epitopes are defined by being recognized by 3 or more donors/different studies)”. In the case of 3019 (SAFAMMFVK) [compound 3019], the Dominant is listed as “Yes (more dominant epitopes are defined by being recognized by 3 or more donors/different studies)”. For 2921 (RIRGGDGKMK) [compound 2921], the Dominant is listed as “Yes (more dominant epitopes are defined by being recognized by 3 or more donors/different studies)”. For 2920 (YYRRATRRIR) [compound 2920], the Dominant is given as “Yes (more dominant epitopes are defined by being recognized by 3 or more donors/different studies)”. In the case of 3039 (ALSKGVHFV) [compound 3039], the Dominant is listed as “Yes (more dominant epitopes are defined by being recognized by 3 or more donors/different studies)”. In the case of 2988 (MLWCKDGHV) [compound 2988], the Dominant is given as “Yes (more dominant epitopes are defined by being recognized by 3 or more donors/different studies)”.

Same assay, conditions: SARS-CoV-2-derived CD8 epitopes; dominant = recognized by 3 or more donors/different studies; cited from earlier work
For 533 (AQFAPSASAF) [compound 533], the Dominant is listed as “Yes (more dominant epitopes are defined by being recognized by 3 or more donors/different studies)”. For 558 (VLSEARQHL) [compound 558], the Dominant is listed as “Yes (more dominant epitopes are defined by being recognized by 3 or more donors/different studies)”. In the case of 579 (KLVNKFLAL) [compound 579], the Dominant is given as “Yes (more dominant epitopes are defined by being recognized by 3 or more donors/different studies)”. For 509 (ATEGALNTPK) [compound 509], the Dominant is given as “Yes (more dominant epitopes are defined by being recognized by 3 or more donors/different studies)”. For 513 (NPANNAAIVL) [compound 513], the Dominant is given as “Yes (more dominant epitopes are defined by being recognized by 3 or more donors/different studies)”. For 662 (TTDPSFLGRYM) [compound 662], the Dominant is listed as “Yes (more dominant epitopes are defined by being recognized by 3 or more donors/different studies)”.

Same assay, conditions: SARS-CoV-2 Ag S; T cell type recognizing the epitope; cited from earlier work
For 1410 (AEVQIDRLI) [compound 1410], the Restriction is listed as “CD8”. For 1419 (SKRVDFCGKGY) [compound 1419], the Restriction is given as “CD8”. In the case of 1440 (VFVSNGTHWF) [compound 1440], the Restriction is given as “CD8”. For 1441 (FVSNGTHWF) [compound 1441], the Restriction is listed as “CD8”. In the case of 1413 (LITGRLQSL) [compound 1413], the Restriction is given as “CD8”. In the case of 1372 (EVFAQVKQI) [compound 1372], the Restriction is listed as “CD8”. For 1354 (LGAENSVAY) [compound 1354], the Restriction is given as “CD8”. In the case of 1384 (LPPLLTDEM) [compound 1384], the Restriction is listed as “CD8”. For 1333 (TSNQVAVLY) [compound 1333], the Restriction is given as “CD8”. In the case of 1448 (DSFKEELDKY) [compound 1448], the Restriction is listed as “CD8”. In the case of 1464 (CMTSCCSCLK) [compound 1464], the Restriction is listed as “CD8”. For 1460 (QYIKWPWYIW) [compound 1460], the Restriction is listed as “CD8”. In the case of 1449 (SFKEELDKY) [compound 1449], the Restriction is given as “CD8”. For 1399 (IANQFNSAI) [compound 1399], the Restriction is listed as “CD8”. In the case of 1377 (ILPDPSKPSK) [compound 1377], the Restriction is given as “CD8”. For 1378 (SFIEDLLF) [compound 1378], the Restriction is given as “CD8”.

Same assay, conditions: T cell subset (CD4 or CD8) recognizing the SARS-CoV-2-derived epitope; cited from earlier work
For 533 (AQFAPSASAF) [compound 533], the Restriction is listed as “CD8”. For 553 (KTFPPTEPKKDKKK) [compound 553], the Restriction is listed as “CD8”. In the case of 537 (SASAFFGMSR) [compound 537], the Restriction is given as “CD8”. In the case of 517 (SSRGTSPAR) [compound 517], the Restriction is given as “CD8”. For 665 (MSALNHTKK) [compound 665], the Restriction is given as “CD8”. For 694 (ASFDNFKFV) [compound 694], the Restriction is listed as “CD8”. For 590 (VLNEKCSAY) [compound 590], the Restriction is listed as “CD8”. For 610 (YIATNGPLK) [compound 610], the Restriction is given as “CD8”. For 669 (YPQVNGLTSI) [compound 669], the Restriction is listed as “CD8”. For 582 (GETLPTEVL) [compound 582], the Restriction is listed as “CD8”. For 614 (RTNVYLAVF) [compound 614], the Restriction is given as “CD8”. In the case of 558 (VLSEARQHL) [compound 558], the Restriction is given as “CD8”. For 579 (KLVNKFLAL) [compound 579], the Restriction is given as “CD8”. For 689 (EIDPKLDNY) [compound 689], the Restriction is given as “CD8”. In the case of 589 (ELDERIDKV) [compound 589], the Restriction is given as “CD8”. In the case of 623 (LVSDIDITF) [compound 623], the Restriction is given as “CD8”. In the case of 611 (YENFNQHEV) [compound 611], the Restriction is listed as “CD8”. For 587 (FELDERIDKV) [compound 587], the Restriction is listed as “CD8”. For 509 (ATEGALNTPK) [compound 509], the Restriction is given as “CD8”. For 515 (AEGSRGGSQA) [compound 515], the Restriction is given as “CD8”. In the case of 601 (MELTPVVQTI) [compound 601], the Restriction is given as “CD8”. In the case of 513 (NPANNAAIVL) [compound 513], the Restriction is given as “CD8”. In the case of 613 (GADPIHSLR) [compound 613], the Restriction is given as “CD8”. For 662 (TTDPSFLGRYM) [compound 662], the Restriction is listed as “CD8”. In the case of 564 (IPVAYRKVLL) [compound 564], the Restriction is given as “CD8”.

Same assay, conditions: T cell type (CD4 or CD8) recognizing the SARS-CoV-2 epitope; cited from earlier work
For 952 (FVVSTGYHFR) [compound 952], the Restriction is listed as “CD8”. In the case of 991 (VRNLQHRLY) [compound 991], the Restriction is given as “CD8”. For 1093 (KLMGHFAWW) [compound 1093], the Restriction is given as “CD8”. In the case of 941 (HVDTDLTKPY) [compound 941], the Restriction is given as “CD8”. For 978 (IAATRGATV) [compound 978], the Restriction is given as “CD8”. For 1051 (KNLSDRVVFV) [compound 1051], the Restriction is given as “CD8”. For 1035 (FAIGLALYY) [compound 1035], the Restriction is given as “CD8”. In the case of 1088 (LPKGIMMNV) [compound 1088], the Restriction is given as “CD8”. For 924 (FDIYNDKVAGF) [compound 924], the Restriction is given as “CD8”. In the case of 1039 (YVFCTVNAL) [compound 1039], the Restriction is listed as “CD8”. In the case of 1013 (LTNDNTSRYW) [compound 1013], the Restriction is listed as “CD8”. For 933 (FVENPDILRV) [compound 933], the Restriction is given as “CD8”. In the case of 925 (KVAGFAKFL) [compound 925], the Restriction is listed as “CD8”. For 1044 (AVASKILGL) [compound 1044], the Restriction is given as “CD8”. In the case of 938 (SLLMPILTL) [compound 938], the Restriction is listed as “CD8”. For 1030 (APTLVPQEHYV) [compound 1030], the Restriction is listed as “CD8”. In the case of 993 (FVNEFYAYLR) [compound 993], the Restriction is given as “CD8”.
